Patent publication US12195427B2, “MASP-2 inhibitors and methods of use” (priority 2018, dated 2025)
Each block holds one compound with its values, some of them ahead of it.

Biological target: MASP-2 CCP2-SP (Homo sapiens (Human), UniProt O00187)
Experiment: MASP-2 co-crystallization, X-ray crystallography and structure analysis (H-bonds, van der Waals contacts);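 as to Ligand-pharmacophore element distance, pharmacophore element C2: distance from averaged pharmacophore element to bound ligand; missing value means element absent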;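 as to Ligand-pharmacophore element distance, pharmacophore element C3: distance from averaged pharmacophore element to bound ligand; missing value means element absent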;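 as to Ligand-pharmacophore element distance, pharmacophore element C4: distance from averaged pharmacophore element to bound ligand; missing value means element absent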;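 as to Ligand-pharmacophore element distance, pharmacophore element C5: distance from averaged pharmacophore element to bound ligand; missing value means element absent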
Set-up: van der Waals contact distance, MASP-2 HIS 483 atom CD2 / van der Waals contact distance, MASP-2 HIS 483 atom NE2 / van der Waals contact distance, SER 654 C to compound atom / van der Waals contact distance, SER 654 O to compound atom / van der Waals contact distance, TRP 655 C to compound atom / van der Waals contact distance, MASP-2 GLY 528 atom CA / van der Waals contact distance TRP 655 atom CZ3 / van der Waals contact distance TRP 655 atom N / van der Waals contact distance TRP 655 atom CE3 / van der Waals contact distance GLY 656 atom C / van der Waals contact distance GLY 656 atom CA / van der Waals contact distance GLY 656 atom O / van der Waals contact distance, MASP-2 TYR 607 atom CD1 / van der Waals contact distance, MASP-2 PRO 606 atom O / d(C3,CA1) / d(CA1,N1)2 / d(H4,O1) / d(H4,O2) / d(O1,O2) / d(CA1,O2) / d(CA6,O1) / d(CA6,O2) / d(CA1,C5) / d(O2,H3) / d(N2,C2) / d(CA5,N2) / d(N2,C4) / d(N2,C6) / d(N2,CA3) / d(N2,O3) / d(O4,H2): unit not given beside the values
Details: for Ligand-pharmacophore element distance, pharmacophore element C2 / Ligand-pharmacophore element distance, pharmacophore element C3 / Ligand-pharmacophore element distance, pharmacophore element C4 / Ligand-pharmacophore element distance, pharmacophore element C5 / Ligand-pharmacophore element distance, pharmacophore element C6 / Ligand-pharmacophore element distance, pharmacophore element C7 / Ligand-pharmacophore element distance, pharmacophore element CA1 / Ligand-pharmacophore element distance, pharmacophore element CA2 / Ligand-pharmacophore element distance, pharmacophore element CA3 / Ligand-pharmacophore element distance, pharmacophore element CA4 / Ligand-pharmacophore element distance, pharmacophore element CA5 / Ligand-pharmacophore element distance, pharmacophore element CA6: Table A4-1; for H-bond distance to MASP-2 ASP 627 atom OD2: ASP 627 OD2; for H-bond distance to MASP-2 SER 628 atom O: SER 628 O; for H-bond distance to MASP-2 GLY 656 atom N: GLY 656 N; for H-bond distance to MASP-2 SER 654 atom O: SER 654 O; for H-bond distance to MASP-2 SER 657 atom O: SER 657 O
Text: This example illustrates the preparation of recombinant MASP-2 protein, based on UniProt O00187, human mannan-binding lectin serine protease 2. Expression constructs for human MASP-2 CCP2-SP and CCP2-SP-6HIS were generated for recombinant expression in E. coli cells.
Typically, crystallization hits were obtained by screening against […] 96-well crystallization reagent kits (GRAS6, GRAS2, Hampton Research; MORPHEUS, Molecular Dimensions; Wizard 1&2 Cryo, Rigaku Reagents) and crystal growth was inspected by optical microscopy. Crystals were used directly or further optimized for X-ray diffraction. Crystals were captured with cryogenic loops and dipped into liquid nitrogen directly or cryoprotected with a 20% glycerol in crystallization formulation before flash-cooling in liquid nitrogen.
Thereafter crystals are transferred once or twice for soaking within the crystallization solution containing the MASP-2 inhibitor.
Crystals were diffracted with synchrotron X-rays of […] and X-ray diffraction datasets were collected at beamlines SSRL BL9-2, BL14-1, BL12-2 as well as ALS sector 5 using Dectris Pilatus and Eiger detectors. Structures were determined by molecular replacement using portions of the structure 1Q3X as search models and partially refined with Buster 2.10.2 or Refmac 5.8. […] When multiple ligand poses were observed, for instance arising from multiple molecules in the asymmetric unit or refined dual poses within the same molecule, only one pose was selected and analyzed.
LigPlot+ calls these ‘nonbonded contacts’ or ‘hydrophobic contacts’. Despite the name, there are atom pairings that include possible H-bonds. Thus, in some instances, the Table A2 also contains H-bond interactions.

[1] = Table A5-1 pharmacophore: distance between elements, S2/S1 region
[2] = Table A5-2 pharmacophore distance, S3/S4 region
[3] = Table A7-2, between pharmacophore elements of the bound compound
[4] = Table A7-1, between pharmacophore elements of the bound compound
[5] = Table A8-6, nearest protein atom in cell to the left

MASP-2 CCP2-SP, sequence (O00187 445-686): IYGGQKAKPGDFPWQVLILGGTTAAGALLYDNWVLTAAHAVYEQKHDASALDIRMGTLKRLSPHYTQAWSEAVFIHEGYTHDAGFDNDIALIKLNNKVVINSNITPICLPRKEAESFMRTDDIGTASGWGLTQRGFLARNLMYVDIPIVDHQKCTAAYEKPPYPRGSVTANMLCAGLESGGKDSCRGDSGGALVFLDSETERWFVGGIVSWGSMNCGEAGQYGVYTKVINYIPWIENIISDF
MASP-2 CCP2-SP, sequence (O00187 364-432 partner): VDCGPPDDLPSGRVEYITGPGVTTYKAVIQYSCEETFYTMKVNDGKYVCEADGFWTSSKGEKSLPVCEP

SMILES: CC(NC(=O)C1CC(Cc2ccccc2)CN1)C(=O)NCc1cnc2c(c1)c(Cl)cn2C.Cl.Cl (mixture of isomers) [1450_A]
- Ligand-pharmacophore element distance, pharmacophore element C2: 0
- Ligand-pharmacophore element distance, pharmacophore element C3: 0
- Ligand-pharmacophore element distance, pharmacophore element C4: 0
- Ligand-pharmacophore element distance, pharmacophore element C5: 0.34
- Ligand-pharmacophore element distance, pharmacophore element C6: 0
- Ligand-pharmacophore element distance, pharmacophore element C7: 0.72
- Ligand-pharmacophore element distance, pharmacophore element CA1: 1.03
- Ligand-pharmacophore element distance, pharmacophore element CA2: 0.4
- Ligand-pharmacophore element distance, pharmacophore element CA3: 0
- Ligand-pharmacophore element distance, pharmacophore element CA4: 0
- Ligand-pharmacophore element distance, pharmacophore element CA5: 0
- Ligand-pharmacophore element distance, pharmacophore element CA6: 0
- d(CA1,C5) [1]: 3.55
- d(CA1,O1) [1]: 5.47
- d(CA1,O2) [1]: 4.73
- d(CA1,O4) [1]: 1.75
- d(H4,O1) [1]: 3.16
- d(H4,O2) [1]: 3.57
- d(O1,O2) [1]: 3.11
- d(N2,CA2) [2]: 5.88
- d(O2,H3) [2]: 2.31
- d(O2,N2) [2]: 2.81
- a(C5, CA1, O1) (Table A6-1 pharmacophore angle): 150.97
- a(CA1, O1, O2) (Table A6-1 pharmacophore angle): 94.14
- a(O1, CA1, C7) (Table A6-1 pharmacophore angle): 136.18
- a(O1, CA1, O4) (Table A6-1 pharmacophore angle): 68.80
- a(O1, O2, H4) (Table A6-1 pharmacophore angle): 125.38
- a(O1, O2, H3) (Table A6-2 pharmacophore angle): 127.40
- a(O1, O2, N2) (Table A6-2 pharmacophore angle): 139.62
- a(O2, N2, CA2) (Table A6-2 pharmacophore angle): 154.51
- Pharmacophore torsion angle a(O1, O2, N2, CA2) [3]: 120.74

- H-bond distance to MASP-2 ASP 627 atom OD2 (Table A1 (H-Bonds)): 3.11
- H-bond distance to MASP-2 SER 628 atom O (Table A1 (H-Bonds)): 2.38
- van der Waals contact distance, MASP-2 HIS 483 atom CD2 (Table A2-1): 3.68
- van der Waals contact distance, MASP-2 HIS 483 atom CE1 (Table A2-1): 3.81
- van der Waals contact distance, MASP-2 PHE 529 atom CZ (Table A2-3): 3.88
- van der Waals contact distance, SER 654 O to compound atom (Table A2-12): 3.51
- van der Waals contact distance, TRP 655 CA to compound atom (Table A2-12): 3.68
- van der Waals contact distance, MASP-2 amino acid atom to compound atom (Table A2 section before Table A2-8): 3.84
SMILES: C[C@H](NC(=O)[C@H]1C[C@@H](c2ccccc2)CCN1)C(=O)NCc1ccc(N)nc1 (stereo in doubt) [compound 1025]

- H-bond distance to MASP-2 GLY 656 atom N (Table A1 (H-Bonds)): 3.25
- H-bond distance to MASP-2 SER 628 atom O (Table A1 (H-Bonds)): 2.93
- H-bond distance to MASP-2 SER 654 atom O (Table A1 (H-Bonds)): 2.94
- H-bond distance to MASP-2 SER 657 atom O (Table A1 (H-Bonds)): 2.83
- van der Waals contact distance, MASP-2 PHE 529 atom CD1 (Table A2-3): 3.71
- van der Waals contact distance, MASP-2 amino acid atom to compound atom (Table A2-5: TYR 607 (CE1, CE2, OH), PRO 608 (CD, CG), SER 611 (CA)): 3.85
- van der Waals contact distance GLY 656 atom C (Table A2-13, MASP-2 GLY 656 C): 3.36
- van der Waals contact distance TRP 655 atom O (Table A2-13, MASP-2 TRP 655 O): 3.84
- van der Waals contact distance SER 657 atom C (Table A2-14, MASP-2 SER 657 C, columns c12-c13 (inferred)): 3.75
- Ligand-pharmacophore element distance, pharmacophore element C2: 0.48
- Ligand-pharmacophore element distance, pharmacophore element C3: 0
- Ligand-pharmacophore element distance, pharmacophore element C4: 0
- Ligand-pharmacophore element distance, pharmacophore element C5: 0
- Ligand-pharmacophore element distance, pharmacophore element C6: 0
- Ligand-pharmacophore element distance, pharmacophore element C7: 0
- Ligand-pharmacophore element distance, pharmacophore element CA1: 0.3
- Ligand-pharmacophore element distance, pharmacophore element CA2: 0.85
- Ligand-pharmacophore element distance, pharmacophore element CA3: 0
- Ligand-pharmacophore element distance, pharmacophore element CA4: 0
- Ligand-pharmacophore element distance, pharmacophore element CA5: 0
- Ligand-pharmacophore element distance, pharmacophore element CA6: 0
- d(CA1,N1) [1]: 3.56
- d(CA1,O1) [1]: 4.95
- d(CA1,O2) [1]: 3.58
- d(H4,O1) [1]: 5.37
- d(H4,O2) [1]: 3.82
- d(O1,O2) [1]: 3.31
- d(N2,C2) [2]: 1.38
- d(N2,CA2) [2]: 5.62
- d(O2,H3) [2]: 4.92
- d(O2,N2) [2]: 3.36
- a(CA1, O1, O2) (Table A6-1 pharmacophore angle): 88.32
- a(O1, O2, H4) (Table A6-1 pharmacophore angle): 142.43
- A(N1, CA1, O1) a) (Table A6-1 pharmacophore angle, all compounds with protonatable center N1 except Methyl-amino-pyridine): 167.99
- a(O1, O2, H3) (Table A6-2 pharmacophore angle): 157.64
- a(O1, O2, N2) (Table A6-2 pharmacophore angle): 139.49
- a(O2, N2, C2) (Table A6-2 pharmacophore angle): 118.75
- a(O2, N2, CA2) (Table A6-2 pharmacophore angle): 154.05
- Pharmacophore torsion angle a(H4, O1, O2, H3) [4]: 54.13
- Pharmacophore torsion angle a(H4, O1, O2, N2) [4]: 155.02
- Pharmacophore torsion angle a(N1, CA1, O2, H4) [4]: −130.71
- Pharmacophore torsion angle a(O1, H4, O2, CA1) [4]: −74.94
- Pharmacophore torsion angle a(O1, O2, N2, C2) [4]: 150.29
- Pharmacophore protein distance to MET_658 (first MET_658 column) (Table A8-6, 6th residue column, nearest protein atom in cell to the left): 1.74
- Pharmacophore protein distance to MET_658 (second MET_658 column) (Table A8-6, 9th residue column, nearest protein atom in cell to the left): 2.75
- Pharmacophore protein distance to GLY_528 [5]: 3.37
- Pharmacophore protein distance to PHE_529 [5]: 3.00
- Pharmacophore protein distance to PRO_608 [5]: 4.92
- Pharmacophore protein distance to SER_611 [5]: 3.00
- Pharmacophore protein distance to TRP_655 (Table A8-6, pharmacophore elements C6, CA3, O3, H1, nearest protein atom in cell to the left): 3.73
SMILES: C[C@H](NC(=O)C1C[C@@H](c2ccccc2)CCN1)C(=O)NCc1ccc(C(=N)N)cc1 (stereo in doubt) [compound 1063]

SMILES: Cc1nc(N)ccc1CNC(=O)C(C)NC(=O)[C@H]1C[C@H](c2cccc(-c3ccccc3)c2)CN1 (stereo in doubt) [compound 1360, (2R,4R)-4-([1,1′-Biphenyl]-3-yl)-N—((R)-1-(((6-amino-2-methylpyridin-3-yl)methyl)amino)-1-oxopropan-2-yl)pyrrolidine-2-carboxamide]
- H-bond distance to MASP-2 ASP 627 atom OD2 (Table A1 (H-Bonds)): 3.15
- H-bond distance to MASP-2 GLY 656 atom N (Table A1 (H-Bonds)): 3.21
- H-bond distance to MASP-2 GLY 656 atom O (Table A1 (H-Bonds), GLY 656 O): 2.9
- H-bond distance to MASP-2 SER 628 atom O (Table A1 (H-Bonds)): 3.18
- H-bond distance to MASP-2 SER 654 atom O (Table A1 (H-Bonds)): 3.04
- H-bond distance to MASP-2 SER 657 atom O (Table A1 (H-Bonds)): 2.96
- van der Waals contact distance, MASP-2 HIS 483 atom CD2 (Table A2-1): 3.76
- van der Waals contact distance, MASP-2 HIS 483 atom NE2 (Table A2-1): 3.69
- van der Waals contact distance, MASP-2 PHE 529 atom CE1 (Table A2-3): 3.78
- van der Waals contact distance, MASP-2 amino acid atom to compound atom (Table A2-7: SER 628 (CB, O, OG)): 3.61
- van der Waals contact distance, TRP 655 CA to compound atom (Table A2-12): 3.44
- Ligand-pharmacophore element distance, pharmacophore element C2: 0
- Ligand-pharmacophore element distance, pharmacophore element C3: 0.11
- Ligand-pharmacophore element distance, pharmacophore element C4: 0
- Ligand-pharmacophore element distance, pharmacophore element C5: 0
- Ligand-pharmacophore element distance, pharmacophore element C6: 0
- Ligand-pharmacophore element distance, pharmacophore element C7: 0
- Ligand-pharmacophore element distance, pharmacophore element CA1: 0.57
- Ligand-pharmacophore element distance, pharmacophore element CA2: 2.35
- Ligand-pharmacophore element distance, pharmacophore element CA3: 0
- Ligand-pharmacophore element distance, pharmacophore element CA4: 0
- Ligand-pharmacophore element distance, pharmacophore element CA5: 1.11
- Ligand-pharmacophore element distance, pharmacophore element CA6: 0
- d(C3,CA1) [1]: 2.85
- d(CA1,N1)2 [1]: 1.36
- d(CA1,O1) [1]: 4.35
- d(CA1,O2) [1]: 3.85
- d(H4,O1) [1]: 4.38
- d(H4,O2) [1]: 3.80
- d(O1,O2) [1]: 3.32
- d(CA5,N2) [2]: 5.07
- d(N2,CA2) [2]: 8.32
- d(O2,H3) [2]: 4.32
- d(O2,N2) [2]: 2.66
- a(C3, CA1, O1) (Table A6-1 pharmacophore angle): 150.18
- a(CA1, O1, O2) (Table A6-1 pharmacophore angle): 105.67
- a(O1, O2, H4) (Table A6-1 pharmacophore angle): 132.69
- a(N1, CA1, O1) b) (Table A6-1 pharmacophore angle, Methyl-amino-pyridine compounds): 174.23
- a(O1, O2, H3) (Table A6-2 pharmacophore angle): 147.57
- a(O1, O2, N2) (Table A6-2 pharmacophore angle): 138.89
- a(O2, N2, CA2) (Table A6-2 pharmacophore angle): 162.09
- Pharmacophore torsion angle a(C3, CA1, O1, H4) [4]: 24.01
- Pharmacophore torsion angle a(H4, O1, O2, H3) [4]: 51.00
- Pharmacophore torsion angle a(H4, O1, O2, N2) [4]: 138.89
- Pharmacophore torsion angle a(N1, CA1, O1, H4) [4]: 3.34
- Pharmacophore torsion angle a(O1, H4, O2, CA1) [4]: −83.81
- Pharmacophore torsion angle a(O1, O2, N2, CA2) [3]: 130.24
- Pharmacophore torsion angle a(O1, O2, N2, CA5) [3]: 129.35
